Data from article PMC6372279 (eLife, 2019).
Bridge positions count the residues as written; N and C are the ends. Square brackets hold non-standard residues; d marks the D form. Ends that are not written are not given here. I, II: the chains in the order shown. Gla = N[C@@H](CC(C(=O)O)C(=O)O)C(=O)O

Assays:
human IR-B = human IR-B (Homo sapiens, UniProt P06213); test: cell-based
[1] = molecular target: human insulin receptor isoform B (hIR-B) (Homo sapiens, UniProt P06213); test: biochemical; assay type: binding
[2] = system: STZ-induced hyperglycemic mice; settings: mouse, in vivo

Chain of human IR-B (P06213 28-758 limits assumed): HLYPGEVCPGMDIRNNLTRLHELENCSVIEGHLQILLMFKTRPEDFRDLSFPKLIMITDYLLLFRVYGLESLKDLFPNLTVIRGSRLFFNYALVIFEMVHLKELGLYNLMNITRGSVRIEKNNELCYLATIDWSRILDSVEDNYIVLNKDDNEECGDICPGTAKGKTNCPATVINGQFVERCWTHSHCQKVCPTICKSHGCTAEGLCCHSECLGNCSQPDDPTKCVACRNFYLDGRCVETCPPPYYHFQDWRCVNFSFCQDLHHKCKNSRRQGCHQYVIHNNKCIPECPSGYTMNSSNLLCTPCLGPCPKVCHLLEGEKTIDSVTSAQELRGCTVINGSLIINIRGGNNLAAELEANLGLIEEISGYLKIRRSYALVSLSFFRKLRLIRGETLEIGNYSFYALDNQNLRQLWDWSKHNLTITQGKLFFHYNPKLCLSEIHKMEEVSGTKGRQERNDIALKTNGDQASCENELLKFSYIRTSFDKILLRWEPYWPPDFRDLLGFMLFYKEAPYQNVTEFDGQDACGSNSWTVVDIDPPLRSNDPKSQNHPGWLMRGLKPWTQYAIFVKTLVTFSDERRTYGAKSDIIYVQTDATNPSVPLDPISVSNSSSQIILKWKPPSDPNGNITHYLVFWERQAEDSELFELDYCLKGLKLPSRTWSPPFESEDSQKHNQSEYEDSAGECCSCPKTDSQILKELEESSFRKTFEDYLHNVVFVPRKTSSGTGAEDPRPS
Chain of human IR-B (P06213 763-1382 partner limits assumed): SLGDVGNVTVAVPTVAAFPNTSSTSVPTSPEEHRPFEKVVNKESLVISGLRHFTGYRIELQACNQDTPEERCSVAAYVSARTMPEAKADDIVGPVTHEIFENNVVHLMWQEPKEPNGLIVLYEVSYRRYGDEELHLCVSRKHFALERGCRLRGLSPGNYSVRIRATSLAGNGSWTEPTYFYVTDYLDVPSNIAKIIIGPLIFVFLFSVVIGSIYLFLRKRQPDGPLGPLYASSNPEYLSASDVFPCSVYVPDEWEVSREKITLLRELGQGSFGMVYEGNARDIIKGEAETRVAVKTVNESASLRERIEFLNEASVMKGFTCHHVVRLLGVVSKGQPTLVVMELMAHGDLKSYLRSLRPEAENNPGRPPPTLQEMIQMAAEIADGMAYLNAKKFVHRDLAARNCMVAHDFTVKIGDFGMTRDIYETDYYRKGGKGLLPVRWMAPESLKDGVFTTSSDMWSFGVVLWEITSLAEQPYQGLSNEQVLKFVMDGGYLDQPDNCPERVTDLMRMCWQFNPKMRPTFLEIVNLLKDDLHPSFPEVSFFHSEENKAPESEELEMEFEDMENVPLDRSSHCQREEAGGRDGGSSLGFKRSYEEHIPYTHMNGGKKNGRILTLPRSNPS
Chain of human insulin receptor isoform B (hIR-B) (P06213 28-758 limits assumed): as the sequence (P06213 28-758 limits assumed) above
Chain of human insulin receptor isoform B (hIR-B) (P06213 763-1382 partner limits assumed): as the sequence (P06213 763-1382 partner limits assumed) above

Substance: I: NSDTPKHRCGSELADQYVQLCH-NH2 / II: GIV[Gla]VCCDNPCTVATLRTFCH-OH (disulfide I:9-II:7, I:21-II:20, II:6-II:11) [Con-Ins G3]
- potency against the human IR-B compared with Con-Ins G1 (in words) (human IR-B): more than one order of magnitude less potent

Substance: I: NSDTPWNRCGSQITDSYR[Gla]LCPH / II: GVV[Gla]HCCKRACSNA[Gla]FMQFC-NH2 (disulfide I:9-II:7, I:21-II:20, II:6-II:11) [Con-Ins T2]
- IC50 [1]: 31.8 nM
- EC50 (human IR-B): 15.5 nM

Substance: I: SDSGTTLVRRRLCGS[Gla]LVTYLGELCLGN / II: GIV[Gla]DCCYNDCTDEKLKEYCHTLQ-NH2 (disulfide I:13-II:7, I:25-II:20, II:6-II:11) [Con-Ins K1]
- Reversal of hyperglycemia (in words) [2]: effectively reversed hyperglycemia
- Blood glucose, starting value ([2]; SEM): 404 (±25) mg/dL
